Results taken from patent US8338594B2, “Pyrrolotriazine derivatives useful for treating cancer through inhibition of aurora kinase” (Bayer HealthCare LLC, priority 2005, dated 2012).
pIC50: −log10 of the molar value.

Tests used:
[1] = molecular target: T1, murine Aurora Kinase 1 (mAur1) (Mus musculus, UniProt O70126); assay: murine Aurora Kinase 1 (mAur1) biochemical Scintillation Proximity Assay; conditions: SPA, biotinylated Peptide 830, 1 μM ATP, 12 nM GST-tagged mAur 1 co-expressed with human INCENP
T1 construct: recombinant, GST-tagged mAur 1 (amino acids 67-345) that was co-expressed with human INCENP; GST; made in house
Experimental: (§1) Using a Scintillation Proximity Assay (SPA) format, the murine Aurora Kinase 1 (mAur1) and murine Aurora Kinase 2 (mAur2) biochemical assay measures the ability of mAur2 to phosphorylate the substrate, biotinylated Peptide 830 (DRT, Protein Sciences). Once radiolabeled by the enzyme, the biotinylated substrate is captured on streptavidin-coated SPA beads and the radioactivity, in proximity to the SPA beads, is measured. For the generation of IC50 curves, the reaction was performed in 96-well isoplates (Wallac 1450-514) under the following conditions: a 10 mM stock solution of compound (in 100% dimethylsulfoxide; DMSO) was diluted 10 fold in 100% DMSO. Compounds were then serially diluted, 1:5, for an eight point dose curve, in 100% DMSO. A volume of 1 μL of the diluted compound was added to the reaction buffer that consisted of 25 mM HEPES pH 7.5, 1 mM MnCl2, 1 mM MgCl2, 1 mM DTT, 0.01% Tween20. A mixture with a final concentration per well of 1 μM cold ATP, 0.1 μCi ^33P-ATP (Amersham AH9968) and 1 μM biotinylated Peptide 830 was then added. The reaction was initiated with the addition of either recombinant, GST-tagged mAur 1 (amino acids 67-345) that was co-expressed with human INCENP (amino acids 704-919) (DRT, Protein Sciences) at a final concentration of 12 nM or N-terminal His-tagged mAur2 (amino acids 98-395; DRT, Protein Sciences) at a final concentration of 20 nM. The final reaction volume in each well was 100 μL and the final compound concentration ranged from 10 μM-[…] in 1% DMSO. The reaction mixture was allowed to incubate for 1-2 hours with gentle agitation at 25° C. To terminate the reaction, streptavidin-coated SPA beads (Amersham RPNQ0007; 50 μL of 0.5 mg beads dissolved in 165 mM EDTA) were then added to each well and incubation proceeded for an additional 15 minutes at 25° C. The plate was then centrifuged for ten minutes at 2000 rpm. Phosphorylation of the peptide substrate was measured using a Wallac 1450 Microbeta Plus Liquid Scintillation Counter.

[2] = molecular target: T2, murine Aurora Kinase 2 (mAur2) (Mus musculus, UniProt P97477); assay: murine Aurora Kinase 2 (mAur2) biochemical Scintillation Proximity Assay; conditions: SPA, biotinylated Peptide 830, 1 μM ATP, 20 nM His-tagged mAur2
T2 construct: N-terminal His-tagged mAur2 (amino acids 98-395; DRT, Protein Sciences); His (N); made in house
T2 sequence (P97477 98-395): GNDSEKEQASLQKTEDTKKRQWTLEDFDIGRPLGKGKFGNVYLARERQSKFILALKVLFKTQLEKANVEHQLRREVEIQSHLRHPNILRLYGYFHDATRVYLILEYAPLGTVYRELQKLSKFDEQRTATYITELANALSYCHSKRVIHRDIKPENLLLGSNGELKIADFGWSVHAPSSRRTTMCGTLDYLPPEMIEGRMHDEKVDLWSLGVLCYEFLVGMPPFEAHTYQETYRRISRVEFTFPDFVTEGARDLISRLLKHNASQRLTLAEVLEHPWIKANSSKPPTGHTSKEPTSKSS
Experimental: as §1

T1 sequence (O70126 67-345): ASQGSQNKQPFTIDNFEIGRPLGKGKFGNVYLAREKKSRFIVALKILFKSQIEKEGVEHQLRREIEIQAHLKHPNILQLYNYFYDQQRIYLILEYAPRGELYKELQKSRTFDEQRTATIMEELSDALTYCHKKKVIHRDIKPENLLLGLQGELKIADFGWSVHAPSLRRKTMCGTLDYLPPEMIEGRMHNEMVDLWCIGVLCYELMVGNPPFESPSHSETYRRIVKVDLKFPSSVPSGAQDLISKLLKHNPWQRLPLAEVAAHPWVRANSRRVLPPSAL
T1 sequence (Q9NQS7 704-918 partner): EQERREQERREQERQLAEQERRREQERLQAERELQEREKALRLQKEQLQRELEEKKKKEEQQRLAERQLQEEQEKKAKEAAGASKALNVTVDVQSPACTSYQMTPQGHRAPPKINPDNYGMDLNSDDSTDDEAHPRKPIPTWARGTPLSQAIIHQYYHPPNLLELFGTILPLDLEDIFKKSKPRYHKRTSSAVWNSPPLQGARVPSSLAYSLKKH

Row | SMILES | pIC50 [1] | pIC50 [2]
1 | Nc1ncnn2cc(C(=O)NCC(F)(F)F)c(-c3ccc(Nc4nc5ccccc5[nH]4)cc3)c12 [Example 1, 4-amino-5-[4-(1H-benzimidazol-2-ylamino)phenyl]-N-(2,2,2-trifluoroethyl)pyrrolo[2,1-f][1,2,4]triazine-6-carboxamide] | > 7.00 | > 7.00
2 | Nc1ncnn2cc(C(=O)NCC(F)(F)F)c(-c3ccc(Nc4nc5cc(F)cc(F)c5[nH]4)cc3)c12 [Example 6, 4-amino-5-{4-[(5,7-difluoro-1H-benzimidazol-2-yl)amino]phenyl}-N-(2,2,2-trifluoroethyl)pyrrolo[2,1-f][1,2,4]triazine-6-carboxamide] | > 7.00 | > 7.00
3 | COc1ccc2nc(Nc3ccc(-c4c(C(=O)NCC(F)(F)F)cn5ncnc(N)c45)cc3)[nH]c2c1 [Example 8, 4-amino-5-{4-[(6-methoxy-1H-benzimidazol-2-yl)amino]phenyl}-N-(2,2,2-trifluoroethyl)pyrrolo[2,1-f][1,2,4]triazine-6-carboxamide] | > 7.00 | > 7.00
4 | Nc1ncnn2cc(C(=O)NCC(F)(F)F)c(-c3ccc(Nc4nc5ccc(Br)cc5[nH]4)cc3)c12 [Example 9, 4-amino-5-{4-[(6-bromo-1H-benzimidazol-2-yl)amino]phenyl}-N-(2,2,2-trifluoroethyl)pyrrolo[2,1-f][1,2,4]triazine-6-carboxamide] | > 7.00 | > 7.00
5 | Nc1ncnn2cc(C(=O)NCC(F)(F)F)c(-c3ccc(Nc4nc5cc(F)c(F)cc5[nH]4)cc3)c12 [Example 14, 4-amino-5-{4-[(5,6-difluoro-1H-benzimidazol-2-yl)amino]phenyl}-N-(2,2,2-trifluoroethyl)pyrrolo[2,1-f][1,2,4]triazine-6-carboxamide] | > 7.00 | > 7.00
6 | Nc1ncnn2cc(C(=O)NCC(F)(F)F)c(-c3ccc(Nc4nc5cscc5[nH]4)cc3)c12 [Example 16, 4-amino-5-[4-(1H-thieno[3,4-d]imidazol-2-ylamino)phenyl]-N-(2,2,2-trifluoroethyl)pyrrolo[2,1-f][1,2,4]triazine-6-carboxamide] | > 7.00 | > 7.00
7 | Cc1cccc2nc(Nc3ccc(-c4c(C(=O)NCC(F)(F)F)cn5ncnc(N)c45)cc3)[nH]c12 [Example 22, 4-amino-5-{4-[(7-methyl-1H-benzimidazol-2-yl)amino]phenyl}-N-(2,2,2-trifluoroethyl)pyrrolo[2,1-f][1,2,4]triazine-6-carboxamide] | > 7.00 | > 7.00
8 | Nc1ncnn2cc(C(=O)NCC(F)(F)F)c(-c3ccc(Nc4nc5ccc([N+](=O)[O-])cc5[nH]4)cc3)c12 [Example 23, 4-amino-5-{4-[(6-nitro-1H-benzimidazol-2-yl)amino]phenyl}-N-(2,2,2-trifluoroethyl)pyrrolo[2,1-f][1,2,4]triazine-6-carboxamide] | > 7.00 | > 7.00
9 | Nc1ncnn2cc(C(=O)NCC(F)(F)F)c(-c3ccc(Nc4nc5cc(I)cnc5[nH]4)cc3)c12 [Example 25, 4-amino-5-{4-[(6-iodo-3H-imidazo[4,5-b]pyridin-2-yl)amino]phenyl}-N-(2,2,2-trifluoroethyl)pyrrolo[2,1-f][1,2,4]triazine-6-carboxamide] | > 7.00 | > 7.00
10 | Nc1ncnn2cc(C(=O)NCC(F)(F)F)c(-c3ccc(Nc4nc5ccc(Cl)nc5[nH]4)cc3)c12 [Example 26, 4-amino-5-{4-[(5-chloro-3H-imidazo[4,5-b]pyridin-2-yl)amino]phenyl}-N-(2,2,2-trifluoroethyl)pyrrolo[2,1-f][1,2,4]triazine-6-carboxamide] | > 7.00 | > 7.00
11 | Nc1ncnn2cc(C(=O)NCC(F)(F)F)c(-c3ccc(Nc4nc5ccc(Oc6ccccc6F)c(F)c5[nH]4)cc3)c12 [Example 39, 4-amino-5-(4-{[7-fluoro-6-(2-fluorophenoxy)-1H-benzimidazol-2-yl]amino}phenyl)-N-(2,2,2-trifluoroethyl)pyrrolo[2,1-f][1,2,4]triazine-6-carboxamide] | > 7.00 | > 7.00
12 | Nc1ncnn2cc(C(=O)NCC(F)(F)F)c(-c3ccc(Nc4nc5ccc(Oc6cccc(F)c6)c(F)c5[nH]4)cc3)c12 [Example 40, 4-amino-5-(4-{[7-fluoro-6-(3-fluorophenoxy)-1H-benzimidazol-2-yl]amino}phenyl)-N-(2,2,2-trifluoroethyl)pyrrolo[2,1-f][1,2,4]triazine-6-carboxamide] | > 7.00 | > 7.00
13 | Cc1cccc(Oc2ccc3nc(Nc4ccc(-c5c(C(=O)NCC(F)(F)F)cn6ncnc(N)c56)cc4)[nH]c3c2F)c1 [Example 42, 4-amino-5-(4-{[7-fluoro-6-(3-methylphenoxy)-1H-benzimidazol-2-yl]amino}phenyl)-N-(2,2,2-trifluoroethyl)pyrrolo[2,1-f][1,2,4]triazine-6-carboxamide] | > 7.00 | > 7.00
14 | Cc1ncnc2[nH]c(Nc3ccc(-c4c(C(=O)NCC(F)(F)F)cn5ncnc(N)c45)cc3)nc12 [Example 45, 4-amino-5-{4-[(6-methyl-9H-purin-8-yl)amino]phenyl}-N-(2,2,2-trifluoroethyl)pyrrolo[2,1-f][1,2,4]triazine-6-carboxamide] | > 7.00 | > 7.00
15 | Nc1ncnn2cc(C(=O)NCC(F)(F)F)c(-c3ccc(Nc4nc5ccc(NC6CCCCC6)nc5[nH]4)cc3)c12 [Example 48, 4-amino-5-(4-{[5-(cyclohexylamino)-3H-imidazo[4,5-b]pyridin-2-yl]amino}phenyl)-N-(2,2,2-trifluoroethyl)pyrrolo[2,1-f][1,2,4]triazine-6-carboxamide] | > 7.00 | > 7.00
16 | Cc1ccc(Oc2ccc3nc(Nc4ccc(-c5c(C(=O)NCC(F)(F)F)cn6ncnc(N)c56)cc4)[nH]c3n2)cc1C [Example 49, 4-amino-5-(4-{[5-(3,4-dimethylphenoxy)-3H-imidazo[4,5-b]pyridin-2-yl]amino}phenyl)-N-(2,2,2-trifluoroethyl)pyrrolo[2,1-f][1,2,4]triazine-6-carboxamide] | > 7.00 | > 7.00
17 | Nc1ncnn2cc(C(=O)NCC(F)(F)F)c(-c3ccc(Nc4nc5ccc(Sc6cccc(F)c6)nc5[nH]4)cc3)c12 [Example 50, 4-amino-5-[4-({5-[(3-fluorophenyl)thio]-3H-imidazo[4,5-b]pyridin-2-yl}amino)phenyl]-N-(2,2,2-trifluoroethyl)pyrrolo[2,1-f][1,2,4]triazine-6-carboxamide] | > 7.00 | > 7.00
18 | CCCNc1ccc2nc(Nc3ccc(-c4c(C(=O)NCC(F)(F)F)cn5ncnc(N)c45)cc3)[nH]c2n1 [Example 55, 4-amino-5-(4-{[5-(propylamino)-3H-imidazo[4,5-b]pyridin-2-yl]amino}phenyl)-N-(2,2,2-trifluoroethyl)pyrrolo[2,1-f][1,2,4]triazine-6-carboxamide] | > 7.00 | > 7.00
19 | Nc1ncnn2cc(C(=O)NCC(F)(F)F)c(-c3ccc(Nc4nc5cc6c(cc5[nH]4)OC(F)(F)O6)c(F)c3)c12 [Example 60, 4-amino-5-{4-[(2,2-difluoro-5H-[1,3]dioxolo[4,5-f]benzimidazol-6-yl)amino]-3-fluorophenyl}-N-(2,2,2-trifluoroethyl)pyrrolo[2,1-f][1,2,4]triazine-6-carboxamide] | > 7.00 | > 7.00
20 | Nc1ncnn2cc(C(=O)O)c(-c3ccc(Nc4nc5cc(F)cc(F)c5[nH]4)cc3)c12 [Example 71, 4-amino-5-{4-[(5,7-difluoro-1H-benzimidazol-2-yl)amino]phenyl}pyrrolo[2,1-f][1,2,4]triazine-6-carboxylic acid] | > 7.00 | > 7.00
21 | CCNC(=O)c1cn2ncnc(N)c2c1-c1ccc(Nc2nc3cc(F)cc(F)c3[nH]2)cc1 [Example 73, 4-amino-5-{4-[(5,7-difluoro-1H-benzimidazol-2-yl)amino]phenyl}-N-ethylpyrrolo[2,1-f][1,2,4]triazine-6-carboxamide] | > 7.00 | > 7.00
